Source: patent US6936585B2, “Corticotropin releasing factor 2 receptor agonists” (priority 2002, dated 2005)
Read-outs that look alike come from different tables or passages of the source. Peptide text beside a SMILES is read from it.

Experiments:
[1] = target: T1, CRF2R (Homo sapiens, UniProt Q13324); assay: CRF2R agonist activation (EC50 / Emax), called comparative CRF binding; assay type: cell-based; details: for Emax: read-out: CRF2R Emax
T1 sequence (Q13324 1-411): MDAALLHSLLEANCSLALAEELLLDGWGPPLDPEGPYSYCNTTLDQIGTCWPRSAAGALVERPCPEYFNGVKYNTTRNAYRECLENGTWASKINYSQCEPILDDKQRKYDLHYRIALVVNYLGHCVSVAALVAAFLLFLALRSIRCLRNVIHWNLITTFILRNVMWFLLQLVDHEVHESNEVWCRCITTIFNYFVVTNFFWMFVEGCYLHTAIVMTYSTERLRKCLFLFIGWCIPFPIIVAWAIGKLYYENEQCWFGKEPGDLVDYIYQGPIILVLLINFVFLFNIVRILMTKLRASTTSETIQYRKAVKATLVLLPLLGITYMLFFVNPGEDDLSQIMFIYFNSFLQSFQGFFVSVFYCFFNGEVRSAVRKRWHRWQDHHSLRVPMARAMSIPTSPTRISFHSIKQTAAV
Procedure, shortened: (§1)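 Cells expressing human CRF1R or CRF2R are exposed to peptide or vehicle control, and receptor activation is read as cAMP induction, measured in cell lysates or via a CRE-linked reporter gene.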

[2] = target: T2, CRF1R (Homo sapiens, UniProt P34998); assay: CRF1R agonist activation (EC50 / Emax), called comparative CRF binding; assay type: cell-based; details: for Emax: read-out: CRF1R Emax
T2 sequence (P34998 24-415): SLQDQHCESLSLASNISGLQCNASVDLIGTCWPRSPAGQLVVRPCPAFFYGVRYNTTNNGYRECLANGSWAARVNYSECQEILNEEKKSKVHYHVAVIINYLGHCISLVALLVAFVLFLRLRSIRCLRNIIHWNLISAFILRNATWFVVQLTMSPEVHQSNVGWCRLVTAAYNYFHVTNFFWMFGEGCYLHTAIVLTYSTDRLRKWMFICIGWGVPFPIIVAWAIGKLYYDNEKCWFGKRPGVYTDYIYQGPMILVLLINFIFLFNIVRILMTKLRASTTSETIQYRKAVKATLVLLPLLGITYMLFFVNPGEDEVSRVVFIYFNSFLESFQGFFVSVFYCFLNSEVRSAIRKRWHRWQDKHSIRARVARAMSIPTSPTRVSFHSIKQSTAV
Procedure, shortened: as §1

CC[C@H](C)[C@H](N)C(=O)N[C@H](C(=O)N[C@@H](CC(C)C)C(=O)N[C@@H](CO)C(=O)N[C@@H](CC(C)C)C(=O)N[C@@H](CC(=O)O)C(=O)N[C@H](C(=O)N1CCC[C@H]1C(=O)N[C@H](C(=O)NCC(=O)N[C@@H](CC(C)C)C(=O)N[C@@H](CC(C)C)C(=O)N[C@@H](CCC(N)=O)C(=O)N[C@H](C(=O)N[C@@H](CC(C)C)C(=O)N[C@@H](CC(C)C)C(=O)N[C@@H](CCC(=O)O)C(=O)N[C@@H](CCC(N)=O)C(=O)N[C@H](C(=O)N[C@@H](CCCCN)C(=O)N[C@@H](C)C(=O)N[C@@H](CC(=O)O)C(=O)N[C@@H](CCC(N)=O)C(=O)N[C@@H](CC(C)C)C(=O)N[C@@H](C)C(=O)N[C@@H](CCC(N)=O)C(=O)N[C@@H](CCC(N)=O)C(=O)N[C@@H](C)C(=O)N[C@@H](Cc1c[nH]cn1)C(=O)N[C@@H](CO)C(=O)N[C@@H](CC(N)=O)C(=O)N[C@@H](CCCNC(=N)N)C(=O)N[C@@H](CCCCN)C(=O)N[C@@H](CC(C)C)C(=O)N[C@@H](CC(C)C)C(=O)N[C@@H](CC(=O)O)C(=O)N[C@H](C(=O)N[C@@H](C)C(N)=O)[C@@H](C)CC)[C@@H](C)O)[C@@H](C)CC)[C@@H](C)CC)C(C)C)C(C)C [compound 159] (H-IVLSLDVPIGLLQILLEQTKADQLAQQAHSNRKLLDIA-NH2; N-terminus assumed)
Emax [1]: 62%
Emax [2]: 9%

CC[C@H](C)[C@H](N)C(=O)N[C@H](C(=O)N[C@@H](CC(C)C)C(=O)N[C@@H](CO)C(=O)N[C@@H](CC(C)C)C(=O)N[C@@H](CC(=O)O)C(=O)N[C@H](C(=O)N1CCC[C@H]1C(=O)N[C@H](C(=O)NCC(=O)N[C@@H](CC(C)C)C(=O)N[C@@H](CC(C)C)C(=O)N[C@@H](CCC(N)=O)C(=O)N[C@H](C(=O)N[C@@H](CC(C)C)C(=O)N[C@@H](CC(C)C)C(=O)N[C@@H](CCC(=O)O)C(=O)N[C@@H](CC(C)C)C(=O)N[C@@H](C)C(=O)N[C@@H](CCCNC(=N)N)C(=O)N[C@H](C(=O)N[C@@H](CCC(N)=O)C(=O)N[C@@H](CO)C(=O)N[C@@H](CCC(N)=O)C(=O)N[C@@H](CCCNC(=N)N)C(=O)N[C@@H](CCC(=O)O)C(=O)N[C@@H](CCCNC(=N)N)C(=O)N[C@@H](C)C(=O)N[C@@H](CCC(=O)O)C(=O)N[C@@H](CCC(N)=O)C(=O)N[C@@H](CC(N)=O)C(=O)N[C@@H](CCCNC(=N)N)C(=O)N[C@H](C(=O)N[C@H](C(=O)N[C@@H](Cc1ccccc1)C(=O)N[C@@H](CC(=O)O)C(=O)N[C@@H](CO)C(=O)N[C@H](C(N)=O)C(C)C)[C@@H](C)CC)[C@@H](C)CC)[C@@H](C)O)[C@@H](C)O)[C@@H](C)CC)C(C)C)C(C)C [compound 160] (H-IVLSLDVPIGLLQTLLELARTQSQRERAEQNRIIFDSV-NH2; N-terminus assumed)
Emax [1]: 87%
Emax [2]: 10%

CC[C@H](C)[C@H](N)C(=O)N[C@H](C(=O)N[C@@H](CC(C)C)C(=O)N[C@@H](CO)C(=O)N[C@@H](CC(C)C)C(=O)N[C@@H](CC(=O)O)C(=O)N[C@H](C(=O)N1CCC[C@H]1C(=O)N[C@H](C(=O)NCC(=O)N[C@@H](CC(C)C)C(=O)N[C@@H](CC(C)C)C(=O)N[C@@H](CCC(N)=O)C(=O)N[C@H](C(=O)N[C@@H](CC(C)C)C(=O)N[C@@H](CC(C)C)C(=O)N[C@@H](CCC(=O)O)C(=O)N[C@@H](CCC(N)=O)C(=O)N[C@@H](C)C(=O)N[C@@H](CCCNC(=N)N)C(=O)N[C@@H](C)C(=O)N[C@@H](CCCNC(=N)N)C(=O)N[C@@H](C)C(=O)N[C@@H](C)C(=O)N[C@@H](CCCNC(=N)N)C(=O)N[C@@H](CCC(=O)O)C(=O)N[C@@H](CCC(N)=O)C(=O)N[C@@H](C)C(=O)N[C@H](C(=O)N[C@@H](CO)C(=O)N[C@@H](CC(N)=O)C(=O)N[C@@H](CCCNC(=N)N)C(=O)N[C@@H](CCCCN)C(=O)N[C@@H](CC(C)C)C(=O)N[C@@H](CCSC)C(=O)N[C@@H](CCC(=O)O)C(=O)N[C@H](C(=O)N[C@H](C(N)=O)[C@@H](C)CC)[C@@H](C)CC)[C@@H](C)O)[C@@H](C)CC)[C@@H](C)CC)C(C)C)C(C)C [compound 163] (H-IVLSLDVPIGLLQILLEQARARAAREQATSNRKLMEII-NH2; N-terminus assumed)
EC50 ([1]; read-out: CRF2R EC50): 4.49 nM
Emax [1]: 96%
EC50 ([2]; read-out: CRF1R EC50): > 100 nM
Emax [2]: 13%

CC[C@H](C)[C@H](N)C(=O)N[C@H](C(=O)N[C@@H](CC(C)C)C(=O)N[C@@H](CO)C(=O)N[C@@H](CC(C)C)C(=O)N[C@@H](CC(=O)O)C(=O)N[C@H](C(=O)N1CCC[C@H]1C(=O)N[C@H](C(=O)NCC(=O)N[C@@H](CC(C)C)C(=O)N[C@@H](CC(C)C)C(=O)N[C@@H](CCC(N)=O)C(=O)N[C@H](C(=O)N[C@@H](CC(C)C)C(=O)N[C@@H](CC(C)C)C(=O)N[C@@H](CCC(=O)O)C(=O)N[C@@H](CCSC)C(=O)N[C@@H](C)C(=O)N[C@@H](CCCNC(=N)N)C(=O)N[C@@H](C)C(=O)N[C@@H](CCC(=O)O)C(=O)N[C@@H](CCC(N)=O)C(=O)N[C@@H](CC(C)C)C(=O)N[C@@H](C)C(=O)N[C@@H](CCC(N)=O)C(=O)N[C@@H](CCC(N)=O)C(=O)N[C@@H](C)C(=O)N[C@@H](Cc1c[nH]cn1)C(=O)N[C@@H](CO)C(=O)N[C@@H](CC(N)=O)C(=O)N[C@@H](CCCNC(=N)N)C(=O)N[C@@H](CCCCN)C(=O)N[C@@H](CC(C)C)C(=O)N[C@@H](CCSC)C(=O)N[C@@H](CCC(=O)O)C(=O)N[C@H](C(=O)N[C@H](C(N)=O)[C@@H](C)CC)[C@@H](C)CC)[C@@H](C)CC)[C@@H](C)CC)C(C)C)C(C)C [compound 164] (H-IVLSLDVPIGLLQILLEMARAEQLAQQAHSNRKLMEII-NH2; N-terminus assumed)
Emax [1]: 92%
Emax [2]: 26%

CC[C@H](C)[C@H](N)C(=O)N[C@H](C(=O)N[C@@H](CC(C)C)C(=O)N[C@@H](CO)C(=O)N[C@@H](CC(C)C)C(=O)N[C@@H](CC(=O)O)C(=O)N[C@H](C(=O)N1CCC[C@H]1C(=O)N[C@H](C(=O)NCC(=O)N[C@@H](CC(C)C)C(=O)N[C@@H](CC(C)C)C(=O)N[C@@H](CCC(N)=O)C(=O)N[C@@H](CCC(=O)O)C(=O)N[C@H](C(=O)N[C@@H](CC(C)C)C(=O)N[C@@H](CCC(=O)O)C(=O)N[C@@H](CCSC)C(=O)N[C@@H](C)C(=O)N[C@@H](CCCNC(=N)N)C(=O)N[C@@H](C)C(=O)N[C@@H](CCC(=O)O)C(=O)N[C@@H](CCC(N)=O)C(=O)N[C@@H](CC(C)C)C(=O)N[C@@H](C)C(=O)N[C@@H](CCC(N)=O)C(=O)N[C@@H](CCC(N)=O)C(=O)N[C@@H](C)C(=O)N[C@@H](Cc1c[nH]cn1)C(=O)N[C@@H](CO)C(=O)N[C@@H](CC(N)=O)C(=O)N[C@@H](CCCNC(=N)N)C(=O)N[C@@H](CCCCN)C(=O)N[C@@H](CC(C)C)C(=O)N[C@@H](CCSC)C(=O)N[C@@H](CCC(=O)O)C(=O)N[C@H](C(=O)N[C@H](C(N)=O)[C@@H](C)CC)[C@@H](C)CC)C(C)C)[C@@H](C)CC)C(C)C)C(C)C [compound 165] (H-IVLSLDVPIGLLQEVLEMARAEQLAQQAHSNRKLMEII-NH2)
Emax [1]: 75%
Emax [2]: 19%

CC[C@H](C)[C@H](N)C(=O)N[C@H](C(=O)N[C@@H](CC(C)C)C(=O)N[C@@H](CO)C(=O)N[C@@H](CC(C)C)C(=O)N[C@@H](CC(=O)O)C(=O)N[C@H](C(=O)N1CCC[C@H]1C(=O)N[C@H](C(=O)NCC(=O)N[C@@H](CC(C)C)C(=O)N[C@@H](CC(C)C)C(=O)N[C@@H](CCC(N)=O)C(=O)N[C@H](C(=O)N[C@@H](CC(C)C)C(=O)N[C@H](C(=O)N[C@@H](CCC(=O)O)C(=O)N[C@H](C(=O)N[C@@H](CCC(=O)O)C(=O)N[C@@H](CCCCN)C(=O)N[C@@H](CCC(N)=O)C(=O)N[C@@H](CCC(=O)O)C(=O)N[C@@H](CCCCN)C(=O)N[C@@H](CCC(=O)O)C(=O)N[C@@H](CCCCN)C(=O)N[C@@H](CCC(N)=O)C(=O)N[C@@H](CCC(N)=O)C(=O)N[C@@H](C)C(=O)N[C@@H](C)C(=O)N[C@@H](CC(N)=O)C(=O)N[C@@H](CC(N)=O)C(=O)N[C@@H](C)C(=O)N[C@@H](CCCNC(=N)N)C(=O)N[C@H](C(=O)N[C@@H](CC(C)C)C(=O)N[C@@H](C)C(=O)N[C@@H](CCCNC(=N)N)C(=O)N[C@H](C(N)=O)C(C)C)[C@@H](C)CC)[C@@H](C)CC)[C@@H](C)CC)[C@@H](C)CC)[C@@H](C)CC)C(C)C)C(C)C [compound 166] (H-IVLSLDVPIGLLQILIEIEKQEKEKQQAANNARILARV-NH2; N-terminus assumed)
EC50 [1]: 3.7 nM
Emax [1]: 99%
EC50 ([2]; CRF1R EC50): 437 nM
Emax [2]: 95%
